These results are taken from ChEMBL document CHEMBL1158086, “Phenolic marine natural products as aldose reductase inhibitors” (J Nat Prod, 2006).

This test is described as follows: Inhibition of human recombinant ALR2.

By IC50 is commonly meant the concentration that gives 50% inhibition.

The structures appear in SMILES notation.

Turning to `O=C(c1ccc(O)cc1)c1cncc(-c2ccc(O)cc2)n1`, the IC50 is 41.4 µM.

Regarding `O=C1O/C(=C\c2ccc(O)c(Br)c2)C(c2ccc(O)cc2)=C1Cl`, the IC50 was determined as 46.2 µM.

On to `O=C1O/C(=C\c2cc(Br)c(O)c(Br)c2)C(c2ccc(O)cc2)=C1Cl`, for which the IC50 stood at 0.8 µM.

As for `O=C1O/C(=C\c2cc(Br)c(O)c(Br)c2)C(c2ccc(O)c(Br)c2)=C1Cl`, the IC50 stood at 12.7 µM.

Consider `O=C(c1ccc(O)cc1)c1nc(-c2ccc(O)cc2)c[nH]1`, for which the IC50 was 21.4 µM.

Consider `O=C(c1ccc(O)cc1)c1ncc(-c2ccc(O)cc2)nc1C(=O)c1ccc(O)cc1`, for which the IC50 is 19.4 µM.

Regarding `O=C1C=C(c2ccc(O)cc2)/C(=C/c2cc(Br)c(O)c(Br)c2)O1`, the IC50 is over 57 µM.

Turning to `O=C1O/C(=C\c2ccc(O)c(Br)c2)C(c2ccc(O)c(Br)c2)=C1Cl`, the IC50 amounted to 16.9 µM.

As to `O=C1O/C(=C\c2cc(Br)c(O)c(Br)c2)C(c2cc(Br)c(O)c(Br)c2)=C1Cl`, the IC50 was found to be 18.7 µM.

Regarding `O=c1oc(-c2ccc(O)cc2)cn2cc(-c3ccc(O)c(I)c3)c(-c3ccc(O)cc3)c12` [LUKIANOL B], the IC50 turned out to be 0.6 µM.

Consider `O=C1C=C(c2cc(Br)c(O)c(Br)c2)/C(=C/c2cc(Br)c(O)c(Br)c2)O1` [RUBROLIDE A], for which the IC50 worked out at 19.8 µM.

Regarding `O=C1C=C(c2ccc(O)c(Br)c2)/C(=C/c2cc(Br)c(O)c(Br)c2)O1` [RUBROLIDE J], the IC50 amounted to 48.1 µM.

As to `O=C1NC(=O)[C@@]2(CCOc3ccc(F)cc32)N1` [SORBINIL], the 50% inhibitory concentration (IC50) came out at 3.6 µM.
